Results: US6716827B1, “Complexes for immobilizing isothiocyanate natural precursors in cyclodextrins, preparation and use” (Commissariat a l'Energie Atomique, priority 1998, dated 2004)

Experiments:
[1] = Solubility in water of benzyl isothiocyanate; format: physicochemical; settings: free compound, oily liquid
[2] = Solubility in aqueous solution of benzyl isothiocyanate formed by myrosinase in the α-cyclodextrin complex, followed by NMR; format: physicochemical; settings: complexed in α-cyclodextrin; formed by action of myrosinase on the glucosinolate complex; 50 mM deuterated phosphate buffer pH 6, 25° C.
Protocol: In this example, the inclusion complex formed in example 1 is converted into an inclusion complex of benzyl isothiocyanate in the cyclodextrin.
For this purpose, myrosinase is added to the solution of the complex prepared in example 1, then hydrolysis of the glucosinolate is followed under nuclear magnetic resonance.
The results are given in FIGS. 4, 5 and 6 which illustrate the NMR spectra obtained at 25° C. and 500 MHz, before the addition of myrosinase (FIG. 4), 1 hour after the addition of myrosinase (FIG. 5), and 17 hours after the addition of myrosinase (FIG. 6).

Q: What does the source list for `S=C=NCc1ccccc1` [benzyl isothiocyanate]?
A: solubility in water [1]: insoluble in water; solubility in an aqueous solution [2]: soluble
